Values quoted from earlier work as cited in US20160082141A1, “CHITIN AND ALGINATE COMPOSITE FIBERS” (THE BOARD OF TRUSTEES OF THE UNIVERSITY OF ALABAMA, priority 2013, published 2016).

Conditions: Dubbs and Gupta 1998

Solubility in water, mass fraction: 20.9×10^−6 g vitamin E/g water
Solubility in water, mol fraction: 0.87×10^−6 mole vitamin E/mole water
Compound: Cc1c(C)c2c(c(C)c1O)CC[C@@](C)(CCC[C@H](C)CCC[C@H](C)CCCC(C)C)O2 [Vitamin E, α-tocopherol]
